Measurements reported in US20070248591A1, “Preventive/Therapeutic Drug for Arteriosclerosis” (TAKEDA PHARMACEUTICAL COMPANY LIMITED, priority 2004, published 2007).

Columns and labels:
[1] = system: THP-1 cells; test: DiI-labeled acetyl LDL (denatured lipoprotein) uptake activity in THP-1 cells, FACS; type: cell-based
Description: THP-1 cells (purchased from ATCC) seeded in a 6-well Low Cell Binding Plate (Nunc) at 1.5×10^6/well were treated for 2 days in RPMI-1640 medium (supplemented with 0.4% FBS, 25 mM HEPES and penicillin/streptomycin) containing phorbol-12-myristate-13-acetate (PMA) (final concentration: 100 nM) or in RPMI-1640 medium (supplemented with 0.4% FBS, 25 mM HEPES and penicillin/streptomycin) containing PMA (final concentration: 100 nM) and D-PDMP (final concentration: 20 μM). Next, the treated cells were washed with serum-free RPMI-1640 medium and then suspended in serum-free RPMI-1640 medium supplemented with DiI (1,1′-dioctadecyl-3,3,3′,3′-tetramethylindocarbocyanine)-labeled acetyl LDL (Funakoshi, final concentration: 20 μg/ml), followed by incubation at 37° C. for 90 minutes while shaking. After washing with PBS, the cells were suspended in Cellfix buffer (BD) and uptake of DiI-labeled acetyl LDL was analyzed on a FACScan (BD Bioscience). The intermediate value obtained by the FACS analysis of the cells treated with phorbol-12-myristate-13-acetate alone was made 100%, and relative values were determined under each condition.

[2] = system: cells; settings: J. Biochem. (Tokyo), 117, 766-773, 1995; cited from earlier work
[3] = target: T1, glucosylceramide synthase (Homo sapiens, UniProt Q16739); settings: Glycoconjugate J., 13, 481-486, 1996; cited from earlier work
T1 sequence (Q16739 1-394): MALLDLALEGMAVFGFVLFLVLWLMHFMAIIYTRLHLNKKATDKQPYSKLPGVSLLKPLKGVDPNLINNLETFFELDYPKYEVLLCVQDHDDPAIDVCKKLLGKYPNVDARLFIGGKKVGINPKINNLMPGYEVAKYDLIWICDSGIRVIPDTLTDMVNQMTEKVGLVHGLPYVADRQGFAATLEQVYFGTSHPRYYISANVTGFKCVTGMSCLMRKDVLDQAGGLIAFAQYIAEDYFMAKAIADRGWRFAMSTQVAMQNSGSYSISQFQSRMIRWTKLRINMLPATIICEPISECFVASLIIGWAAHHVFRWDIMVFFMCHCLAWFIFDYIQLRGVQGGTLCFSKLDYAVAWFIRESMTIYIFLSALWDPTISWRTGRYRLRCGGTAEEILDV

[4] = target: T1, glucosylceramide synthase; test: Glucosylceramide synthase enzyme assay ([14C]UDP-glucose, C8 ceramide, lysate of transfected HEK293 cells); type: biochemical; parameters: made in house; host or cells: HEK293 cells, transiently transfected with pcDNA3.1(-) vector; M-PER lysate, soluble fraction after 27,000 x g; settings: calculated using SAS Preclinical Package, ver. 5
Description: Human glucosylceramide synthase gene was obtained from IMAGE clone 5274768 (Invitrogen). The reaction solution for the reaction was composed of 2 μl of plasmid DNA of IMAGE clone 5274768, 5 μl of 10×Pfu buffer (Stratagene), 1 μl of Hotstart Pfu (Stratagene), 1 μl each of 20 μM primers and 4 μl of 2.5 mM dNTP, to which 36 μl of distilled water was added to make the volume […]. After 2 minutes at 95° C., PCR was carried out by repeating 30 cycles, one set to include 95° C. for 30 seconds, 60° C. for 30 seconds and 72° C. for 2 minutes, followed by an extension at 72° C. for 10 minutes. […]
HEK293 cells (purchased from ATCC; J. Gen. Virol., 36, 59-74, 1977) were cultured in serum-containing DMEM medium and seeded in a 10 cm collagen coated plate (Iwaki Co.) at 1.2×10^6 on the previous day of gene transfer. […] Then, the chloroform layer was collected and the radioactivity was measured in a liquid scintillation counter. The activity value was determined by the following equation: Glucosylceramide synthase activity (%)=Radioactivity of the enzyme reaction product (cpm)/Specific radioactivity of [^14C]UDP-glucose (cpm/nmol)×1/amount of protein (mg)·reaction time (hr)
D-PDMP known to inhibit the glucosylceramide synthase activity was examined using the procedure described above. The IC50 was calculated using SAS Preclinical Package, ver. […]

[5] = system: THP-1 cells; test: Cholesterol efflux activity in foamed THP-1 macrophage-like cells ([3H]cholesterol, apolipoprotein AI); type: cell-based; settings: for Cholesterol Efflux Activity (%): mean ± standard deviation
Description: THP-1 cells (purchased from ATCC; Int. J. Cancer., 26, 171-176, 1980) seeded in a 12-well plate (Falcon) at 8.0×10^5/well were treated for 3 days in RPMI-1640 medium (supplemented with 10% FBS, 25 mM HEPES and penicillin/streptomycin) containing phorbol-12-myristate-13-acetate (PMA) (final concentration: 100 nM) to allow for differentiation into macrophage-like cells. After washing with PBS, serum-free RPMI-1640 containing [^3H] cholesterol-labeled βVLDL (final cholesterol level: 150 μg/ml) was added thereto and incubated for 24 hours to prepare foamed cells. After washing twice with 0.2% BSA-containing PBS and then once with PBS, serum-free RPMI-1640 media supplemented with 0, and 20 µM D-PDMP, respectively, were added to treat for 24 and 48 hours. The supernatant was removed and RPMI-1640 medium (final concentration: 25 μg/ml) containing human apolipoprotein AI (Chemicon) was added thereto. Six hours after, the radioactivity released into the supernatant was measured in a liquid scintillation counter. The cells were further washed once with PBS and then lysed in 0.1% SDS-containing 0.1 N NaOH aqueous solution. A part of the lysate was taken up and the radioactivity was measured in a liquid scintillation counter.
The activity in efflux of cholesterol was determined by the following equation: Cholesterol efflux activity (%)=Radioactivity in supernatant/(Radioactivity in supernatant+Radioactivity in cell lysate)×100
Cells were prepared as described in (1) above. After the foamed cells prepared were washed, serum-free RPMI-1640 media containing 10 μM of glucosylceramide (Matreya, Inc.) and lactosylceramide (CALBIOCHEM), respectively, were added to treat for 24 hours. The supernatant was removed and RPMI-1640 medium (final concentration: 25 μg/ml) containing human apolipoprotein AI (Chemicon) was added thereto. Six hours after, the cholesterol efflux activity was measured by the same method as described in (1) above.

[6] = system: lactosylceramide synthase; settings: Glycoconjugate J., 13, 481-486, 1996; cited from earlier work
[7] = system: phosphorylation of IRS-1; settings: J. Biol. Chem., 277, 3085-3092, 2002; cited from earlier work
[8] = system: human smooth muscle cells; settings: added to the culture system; Biochem. Biophys. Res. Commun., 181, 554-61, 1991; cited from earlier work
[9] = system: human endothelial cells; settings: added to the culture system; J. Biol. Chem., 273, 34349, 1998; cited from earlier work
[10] = exogenously added to the culture system, summary of TABLES 2 and 3

IC50 [4] [µM] | Molecule | Acetyl LDL Uptake Activity (%) ([1]; D-PDMP 20 μM with PMA 100 nM, 2 days, relative to PMA alone = 100%, mean ± standard deviation) | Effect on acetyl LDL uptake activity (in words) ([1]; summary of TABLE 4) | Depletion of glucosylceramide and lactosylceramide in cells (in words) [2] | Inhibition of glucosylceramide synthase activity (in words) [3] | Cholesterol Efflux Activity (%) ([5]; D-PDMP 10 μM, 24 hrs. treatment, 0 μM control 1.7 ± 0.3) | Cholesterol Efflux Activity (%) ([5]; D-PDMP 10 μM, 48 hrs. treatment, 0 μM control 2.1 ± 0.2) | Cholesterol Efflux Activity (%) ([5]; D-PDMP 20 μM, 24 hrs. treatment, 0 μM control 1.7 ± 0.3) | Cholesterol Efflux Activity (%) ([5]; D-PDMP 20 μM, 48 hrs. treatment, 0 μM control 2.1 ± 0.2) | Effect on cholesterol efflux activity (in words) ([5]; summary of TABLE 1) | Inhibition of lactosylceramide synthase activity (in words) [6] | Effect on the action of TNF-α that inhibits phosphorylation of IRS-1 [7] | Cholesterol Efflux Activity (%) ([5]; Glucosylceramide 10 μM, 24 hours, 0 μM control 3.6 ± 0.1) | Effect on cholesterol efflux activity (in words) [5, 10] | Proliferation activity [8] | Expression of cell adhesion molecules such as ICAM-1 [9] | Cholesterol Efflux Activity (%) ([5]; Lactosylceramide 10 μM, 24 hours, 0 μM control 4.3 ± 0.2)
1.5 | CCCCCCCCCC(=O)N[C@H](CN1CCOCC1)[C@H](O)c1ccccc1 [D-PDMP, D-threo-1-phenyl-2-decanoylamino-3-morpholino-1-propanol] | 28.9 ± 6.3^ % | suppressed the acetyl LDL uptake activity | deplete glucosylceramide and lactosylceramide in cells in a concentration- and treating time-dependent manner | known to inhibit the activities | 4.4 ± 0.4 | 6.0 ± 0.4 | 4.3 ± 0.8 | 6.8 ± 0.5 | increased the cholesterol efflux activity concentration- and time-dependently | known to inhibit the activities | suppresses the action of TNF-α that inhibits phosphorylation of IRS-1 | – | – | – | – | –
– | Glucosylceramide | – | – | – | – | – | – | – | – | – | – | – | 3.2 ± 0.2 | suppressed | – | – | –
– | Lactosylceramide | – | – | – | – | – | – | – | – | – | – | – | – | suppressed | the proliferation activity is increased | is increased in human endothelial cells | 2.3 ± 0.2
